Reference: patent US12338218B2, “Crystal form of benzimidazole-2-one compound, solvate thereof, crystal form of solvate thereof, and preparation method thereof” (MEDSHINE DISCOVERY INC., priority 2019, dated 2025)
Like-named read-outs stand apart in the source and are kept apart here.

What was measured:
Assay type in all cases: physicochemical
[1] = Hygroscopicity of crystal form A (dynamic vapor sorption)
Procedure: SEM Advantage-1 Dynamic Vapor Sorption Apparatus.
10-30 mg of crystal form A of compound 1 was weighed and placed in a DVS sample pan for assaying.

[2] = Stability assay of crystal form A in different solvents (XRPD after 2 weeks)
Procedure: 17 aliquots of crystal form A of compound 1 were weighed (about 15 mg per aliquot), and an appropriate amount of a single or mixed solvent in the Table below was added, respectively. The suspension was stirred at room temperature or 50° C. for 2 weeks. Solids were collected by centrifugation, and detected by XRPD for the crystal form status.

[3] = Solid stability assay at high temperature, high humidity and strong light
Procedure: Method for Determining Content Disclosed Herein
Instrument model: Agilent 1260 high performance liquid chromatograph
Detailed parameters of chromatographic conditions were as follows:
Column temperature: 35° C.
Detection wavelength: 230 nm
Mobile phase A: 0.04% aqueous trifluoroacetic acid solution (V/V)
Mobile phase B: 100% acetonitrile
Diluent: acetonitrile: pure water=50:50 (V/V)
Probe Wash: acetonitrile: pure water=50:50 (V/V)
Gradient elution program: […]
According to “Guidelines for Stability Assay of APIs and Preparations” (Chinese Pharmacopoeia 2015 Edition, Volume IV, General Principles 9001), crystal form A of compound 1 was assayed for stability at high temperature (60° C., open), high humidity (room temperature/92.5% relative humidity, open) and strong light (5000±500 Lux, 90 μw/cm^2, sealed).
1.5 g of crystal form A of compound 1 was weighed, placed in an open watch glass, and spread into a thin layer. The samples placed under high temperature and high humidity conditions were placed in a desiccator for inspection, and samples were taken on the 5th, 10th, and 30th days for assaying. The assay results were compared with the initial assay results on day 0. The samples placed under strong light condition were covered with a quartz glass cover, and samples were taken on the 5th and 10th days for assaying. The assay results were compared with the initial assay results on day 0.

[4] = Solid stability assay under accelerated condition (40° C./75% relative humidity, sealed)
Procedure: According to “Guidelines for Stability Assay of APIs and Preparations” (Chinese Pharmacopoeia 2015 Edition, Volume IV, General Principles 9001), crystal form A of compound 1 was assayed for stability under accelerated condition of high temperature and high humidity (40° C./75% relative humidity, sealed).
(§1) 1.5 g of crystal form A of compound 1 was weighed and placed in a double-layer low-density polyethylene bag. Each layer of low-density polyethylene bag was sealed by buckling, respectively, and then the double-layer low-density polyethylene bag was placed in an aluminum foil bag and heat-sealed. Samples were taken on the 1st, 2nd, 3rd and 6th months for assaying, and the assay results were compared with the initial assay results on day 0.

[5] = Solid stability assay under long-term condition (25° C./60% relative humidity, sealed)
Procedure: According to “Guidelines for Stability Assay of APIs and Preparations” (Chinese Pharmacopoeia 2015 Edition, Volume IV, General Principles 9001), crystal form A of compound 1 was assayed for stability under long-term condition (25° C./60% relative humidity, sealed).
as §1, with “the” for “the 1st, 2nd,”

[6] = High humidity (room temperature/92.5% relative humidity, open), Day 5
[7] = High humidity (room temperature/92.5% relative humidity, open), Day 10
[8] = High humidity (room temperature/92.5% relative humidity, open), Day 30
[9] = High temperature (60° C., open), Day 5
[10] = High temperature (60° C., open), Day 10
[11] = High temperature (60° C., open), Day 30
[12] = Strong light (5000 ± 500 Lux, 90 μw/cm^2, sealed), Day 5
[13] = Strong light (5000 ± 500 Lux, 90 μw/cm^2, sealed), Day 10
[14] = 40° C./75% relative humidity, sealed, Month 1
[15] = 40° C./75% relative humidity, sealed, Month 2
[16] = 40° C./75% relative humidity, sealed, Month 3
[17] = 40° C./75% relative humidity, sealed, Month 6
[18] = 25° C./60% relative humidity, sealed, Month 3
[19] = 25° C./60% relative humidity, sealed, Month 6

CCOc1cc([C@@H](CS(C)(=O)=O)n2c(=O)[nH]c3cc(F)ccc32)ccc1OC [crystal form A of compound 1]
hygroscopicity (in words) [1]: low hygroscopicity
hygroscopic weight gain (ΔW) ([1]; DVS, 25° C. and 80% RH): 0.05%
hygroscopicity (in words) ([1]; listed as Crystal form A of compound 1): no or almost no hygroscopicity
Status (after 2 weeks) ([2]; 1,4-Dioxane:n-heptane (1:1), 50° C.): Suspension
Status (after 2 weeks) ([2]; 2-Butanol:m-xylene (2:1), 50° C.): Suspension
Status (after 2 weeks) ([2]; 2-Methyltetrahydrofuran:n-octane (4:1), 50° C.): Suspension
Status (after 2 weeks) ([2]; Acetone:toluene (2:1), room temperature): Suspension
Status (after 2 weeks) ([2]; Acetonitrile:water (3:1), room temperature): Suspension
Status (after 2 weeks) ([2]; Dichloromethane:m-xylene (1:1), room temperature): Suspension
Status (after 2 weeks) ([2]; Dimethyl sulfoxide:water (2:1), 50° C.): Suspension
Status (after 2 weeks) ([2]; Ethanol:water (3:1), 50° C.): Suspension
Status (after 2 weeks) ([2]; Ethyl acetate:m-xylene (2:1), room temperature): Suspension
Status (after 2 weeks) ([2]; Isopropanol:water (85:5), room temperature): Suspension
Status (after 2 weeks) ([2]; Isopropanol:water (92:8), room temperature): Suspension
Status (after 2 weeks) ([2]; Isopropanol:water (95:5), room temperature): Suspension
Status (after 2 weeks) ([2]; Isopropanol:water (98:2), room temperature): Suspension
Status (after 2 weeks) ([2]; Methyl isobutyl ketone:n-hexane (2:1), 50° C.): Suspension
Status (after 2 weeks) ([2]; Methyl tert-butyl ether, room temperature): Suspension
Status (after 2 weeks) ([2]; Toluene, room temperature): Suspension
Status (after 2 weeks) ([2]; Water, room temperature): Suspension
stability in solvents (in words) ([2]; methyl tert-butyl ether, toluene, water, mixed solvent of alcohol and water): good stability
Appearance ([3]; Day 0): White
Content ([3]; Day 0): 99.5%
Total impurity ([3]; Day 0): 0.33%
Appearance [3, 6]: White
Content [3, 6]: 101.1%
Total impurity [3, 6]: 0.32%
Appearance [3, 7]: White
Content [3, 7]: 100.3%
Total impurity [3, 7]: 0.32%
Appearance [3, 8]: White
Content [3, 8]: 99.5%
Total impurity [3, 8]: 0.33%
Appearance [3, 9]: White
Content [3, 9]: 101.3%
Total impurity [3, 9]: 0.32%
Appearance [3, 10]: White
Content [3, 10]: 100.3%
Total impurity [3, 10]: 0.32%
Appearance [3, 11]: White
Content [3, 11]: 99.2%
Total impurity [3, 11]: 0.33%
Appearance [3, 12]: White
Content [3, 12]: 100.4%
Total impurity [3, 12]: 0.33%
Appearance [3, 13]: White
Content [3, 13]: 100.7%
Total impurity [3, 13]: 0.33%
solid stability (in words) ([3]; high temperature, high humidity, or strong light condition): good stability
Appearance [4, 14]: White
Content [4, 14]: 99.5%
Total impurity [4, 14]: 0.32%
Appearance [4, 15]: White
Content [4, 15]: 99.4%
Total impurity [4, 15]: 0.33%
Appearance [4, 16]: White
Content [4, 16]: 99.2%
Total impurity [4, 16]: 0.33%
Appearance [4, 17]: White
Content [4, 17]: 99.5%
Total impurity [4, 17]: 0.33%
Appearance ([4]; Day 0): White
Content ([4]; Day 0): 99.5%
Total impurity ([4]; Day 0): 0.33%
solid stability (in words) ([4]; accelerated condition of 40° C./75% relative humidity): good stability
Appearance [5, 18]: White
Content [5, 18]: 99.0%
Total impurity [5, 18]: 0.34%
Appearance [5, 19]: White
Content [5, 19]: 99.5%
Total impurity [5, 19]: 0.33%
Appearance ([5]; Day 0): White
Content ([5]; Day 0): 99.5%
Total impurity ([5]; Day 0): 0.33%
solid stability (in words) ([5]; long-term condition of 25° C./60% relative humidity): good stability
